Measurements: US20230066011A1, “PYRROLOPYRIMIDINE DERIVATIVE, AND PHARMACEUTICAL COMPOSITION FOR PREVENTING OR TREATING PROTEIN KINASE-RELATED DISEASE COMPRISING SAME AS ACTIVE INGREDIENT” (VORONOI CO., LTD., priority 2019, published 2023)

Legend:
IL-6 = experiment: Inhibition of LPS-induced IL-6 secretion of THP-1 monocytes (ELISA); format: cell-based, human; settings: Homo sapiens, THP-1; compound 0.5 μM, LPS 500 ng/mL, 24 hours; read-out: THP1/IL6 (% inhib)
How it was run: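 THP-1 monocytes grown 16 h at 37 °C, pretreated 1 h with compound at final 0.5 μM, then stimulated with LPS at final 500 ng/mL for 24 h. IL-6 and TNF-α in culture supernatant measured by ELISA (OD 450 nm).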

MDA-MB-468 cell line = experiment: Inhibition of proliferation of MDA-MB-468 cancer cells (Cell Titer-Glo); format: cell-based; settings: Homo sapiens, MDA-MB-468, 72 hours
How it was run: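 Growth inhibition over 72 h: cells seeded at 2,000/well and dosed at eleven 3-fold-spaced final concentrations from 10.000000 μM. Read-out is ATP luminescence (Cell Titer-Glo, 10 min, room temperature), with GI50 derived from it.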

LRRK2 (G2019S) = LRRK2 (G2019S) (Homo sapiens, UniProt Q5S007, G2019S); experiment: LRRK2 G2019S enzyme inhibition, ADP-Glo kinase assay; format: biochemical; design: purchased SignalChem L10-12GG; settings: ATP 25 μM
LRRK2 (G2019S), sequence (Q5S007 970-2527 G2019S limits assumed): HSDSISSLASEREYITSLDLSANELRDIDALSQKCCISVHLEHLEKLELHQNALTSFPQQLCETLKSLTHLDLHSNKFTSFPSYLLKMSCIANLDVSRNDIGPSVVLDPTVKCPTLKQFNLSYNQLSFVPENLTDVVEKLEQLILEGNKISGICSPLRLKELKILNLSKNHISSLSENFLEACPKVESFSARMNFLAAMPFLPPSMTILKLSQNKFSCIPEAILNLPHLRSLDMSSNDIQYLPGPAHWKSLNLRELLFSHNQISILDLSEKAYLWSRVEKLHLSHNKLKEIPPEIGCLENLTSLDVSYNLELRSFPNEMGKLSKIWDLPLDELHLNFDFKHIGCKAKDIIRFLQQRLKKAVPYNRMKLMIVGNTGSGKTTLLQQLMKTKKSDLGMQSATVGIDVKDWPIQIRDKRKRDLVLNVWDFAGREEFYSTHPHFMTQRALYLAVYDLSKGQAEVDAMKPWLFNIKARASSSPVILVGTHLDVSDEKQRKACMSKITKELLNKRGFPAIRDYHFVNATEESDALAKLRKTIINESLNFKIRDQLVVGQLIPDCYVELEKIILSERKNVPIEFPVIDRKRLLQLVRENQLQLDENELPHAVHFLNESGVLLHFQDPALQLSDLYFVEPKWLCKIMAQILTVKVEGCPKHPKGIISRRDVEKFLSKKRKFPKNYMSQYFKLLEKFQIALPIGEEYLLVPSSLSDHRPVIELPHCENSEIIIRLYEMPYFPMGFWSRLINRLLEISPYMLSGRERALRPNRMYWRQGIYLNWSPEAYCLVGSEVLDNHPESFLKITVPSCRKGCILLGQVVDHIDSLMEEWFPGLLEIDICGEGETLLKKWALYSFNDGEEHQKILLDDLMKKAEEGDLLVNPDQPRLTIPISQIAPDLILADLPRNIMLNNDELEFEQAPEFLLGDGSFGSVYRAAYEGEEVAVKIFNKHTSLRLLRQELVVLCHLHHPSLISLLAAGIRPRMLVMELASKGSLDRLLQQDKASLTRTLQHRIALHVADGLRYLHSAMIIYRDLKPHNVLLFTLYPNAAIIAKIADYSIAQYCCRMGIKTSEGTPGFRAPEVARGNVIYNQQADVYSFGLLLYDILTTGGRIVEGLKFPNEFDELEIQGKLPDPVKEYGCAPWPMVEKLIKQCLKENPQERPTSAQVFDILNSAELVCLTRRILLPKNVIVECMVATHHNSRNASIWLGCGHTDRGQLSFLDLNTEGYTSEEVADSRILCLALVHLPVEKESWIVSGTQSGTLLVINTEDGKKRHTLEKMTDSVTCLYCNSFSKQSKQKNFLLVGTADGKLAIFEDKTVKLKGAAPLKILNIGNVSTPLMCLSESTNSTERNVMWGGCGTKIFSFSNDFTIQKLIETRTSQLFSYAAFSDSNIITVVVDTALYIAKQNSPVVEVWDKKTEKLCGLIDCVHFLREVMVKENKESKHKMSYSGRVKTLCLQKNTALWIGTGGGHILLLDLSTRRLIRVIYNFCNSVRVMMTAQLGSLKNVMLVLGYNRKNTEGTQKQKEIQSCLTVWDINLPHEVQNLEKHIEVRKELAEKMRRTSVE
How it was run: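 IC50 derived from luminescent ADP-Glo readout against untreated solvent control, twelve final compound concentrations from 50 μM downward. Reaction: recombinant human LRRK2 G2019S enzyme, 25 μM ATP, substrate, pH 7.4 Tris buffer with MgCl2/BSA/DTT, 25° C. for 2 hours.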

LRRK2 = LRRK2 (Homo sapiens, UniProt Q5S007); experiment: LRRK2 enzyme inhibition, ADP-Glo kinase assay; format: biochemical; design: purchased Invitrogen PR8604B; settings: ATP 10 μM
LRRK2, sequence (Q5S007 970-2527 limits assumed): as the sequence (Q5S007 970-2527 G2019S limits assumed) above, with S1050G counted along it
How it was run: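 ADP-Glo luminescent read-out of ADP formed by purified human LRRK2 enzyme (25 ng), 10 μM ATP, 0.2 μg substrate, 25° C for 2 h, Tris-HCl pH 7.4 buffer with MgCl2, BSA, DTT. Inhibition versus untreated solvent control over twelve final concentrations (50 μM downward) gives IC50.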

| Compound | inhibition at 0.5 µM (IL-6) [%] | GI50 (MDA-MB-468 cell line) [nM] | IC50 (LRRK2 (G2019S)) [nM] | IC50 (LRRK2) [nM] |
| --- | --- | --- | --- | --- |
| CNc1nc(Nc2ccc(C(=O)N3CCC(N4CCOCC4)CC3)c3c2OCC3)nc2[nH]cc(C(F)(F)F)c12 [Example 217, (7-((4-(methylamino)-5-(trifluoromethyl)-7H-pyrrolo[2,3-d]pyrimidin-2-yl)amino)-2,3-dihydrobenzofuran-4-yl)(4-morpholinopiperidin-1-yl)methanone] | 23.4 | 301 to 1000 | < 100 | < 100 |
| CNc1nc(Nc2ccc(S(=O)(=O)N3CCC(N4CCOCC4)CC3)c3c2OCCO3)nc2[nH]cc(C(F)(F)F)c12 [Example 219, N^4-methyl-N^2-(8-((4-morpholinopiperidin-1-yl)sulfonyl)-2,3-dihydrobenzo[b][1,4]dioxin-5-yl)-5-(trifluoromethyl)-7H-pyrrolo[2,3-d]pyrimidine-2,4-diamine] | 10.9 | 301 to 1000 | < 100 | < 100 |
| COCCNc1nc(Nc2ccc(C(=O)N3CCC(N4CCOCC4)CC3)c3c2OCC3)nc2[nH]cc(C#N)c12 [Example 359, 4-((2-methoxy-ethyl)ami-no)-2-((4-(4-morpholino-piperidine-1-carbonyl)-2,3-dihydro-benzofuran-7-yl)amino)-7H-pyrrolo[2,3-d]pyrimidine-5-carbonitrile] | 32 | 301 to 1000 |  |  |
| C=CCNc1nc(Nc2ccc(S(=O)(=O)N3CCC(N4CCOCC4)CC3)cc2OC)nc2[nH]cc(C#N)c12 [Example 361, 4-(allylamino)-2-((2-methoxy-4-((4-morpholino-piperidin-1-yl)sulfonyl)phenyl)amino)-7H-pyrrolo[2,3-d]pyrimidine-5-carbonitrile] | 21.7 | < 50 | < 100 | < 100 |
| CNc1nc(Nc2ccc(C(=O)N3CCN(C4COC4)CC3)c3c2OCCO3)nc2[nH]cc(C(F)(F)F)c12 [Example 397, (8-((4-(methylamino)-5-(trifluoromethyl)-7H-pyrrolo[2,3-d]pyrimidin-2-yl)amino)-2,3-dihydrobenzo[b] [1,4]dioxin-5-yl) (4-(oxetan-3-yl)piperazin-1-yl)methanone] | 32 | 301 to 1000 | < 100 | < 100 |
| CCNc1nc(Nc2ccc(C(=O)N3CCN(C4COC4)CC3)c3c2OCCO3)nc2[nH]cc(C(F)(F)F)c12 [Example 400, (8-((4-(ethylamino)-5-(trifluoromethyl)-7H-pyrrolo[2,3-d]pyrimidin-2-yl)amino)-2,3-dihydrobenzo[b] [1,4]dioxin-5-yl) (4-(oxetan-3-yl)piperazin-1-yl)methanone] | 24.7 | 301 to 1000 | < 100 |  |
| COCCNc1nc(Nc2ccc(C(=O)N3CCN(C4COC4)CC3)c3c2OCCO3)nc2[nH]cc(C(F)(F)F)c12 [Example 403, (8-((4-((2-methoxyethyl)-amino)-5-(trifluoromethyl)-7H-pyrrolo[2,3-d]pyrimidin-2-yl)amino)-2,3-dihydrobenzo[b] [1,4]dioxin-5-yl) (4-(oxetan-3-yl)piperazin-1-yl)methanone] | 30.1 | 301 to 1000 |  | < 100 |
| O=C(c1ccc(Nc2nc(NC3CCC3)c3c(C(F)(F)F)c[nH]c3n2)c2c1OCCO2)N1CCN(C2COC2)CC1 [Example 407, (8-((4-(cyclo-butylamino)-5-(trifluoromethyl)-7H-pyrrolo[2,3-d]pyrimidin-2-yl)amino)-2,3-dihydrobenzo[b] [1,4]dioxin-5-yl) (4-(oxetan-3-yl)piperazin-1-yl)methanone] | 20.2 | 301 to 1000 |  | < 100 |
| O=C(c1ccc(Nc2nc(NC3CCCC3)c3c(C(F)(F)F)c[nH]c3n2)c2c1OCCO2)N1CCN(C2COC2)CC1 [Example 414, (8-((4-(cyclopentyl-amino)-5-(trifluoromethyl)-7H-pyrrolo[2,3-d]pyrimidin-2-yl)amino)-2,3-dihydrobenzo[b] [1,4]dioxin-5-yl) (4-(oxetan-3-yl)piperazin-1-yl)methanone] | 47.3 | 101 to 300 | < 100 | < 100 |
| CCNc1nc(Nc2ccc(S(=O)(=O)N3CCC(N4CCOCC4)CC3)c3c2OCCO3)nc2[nH]cc(C(F)(F)F)c12 [Example 430, N^4-ethyl-N^2-(8-((4-morpholino-piperidin-1-yl)sulfonyl)-2,3-dihydro-benzo[b][1,4]dioxin-5-yl)-5-(trifluoromethyl)-7H-pyrrolo[2,3-d]pyrimidine-2,4-diamine] | 21 | 301 to 1000 | < 100 | < 100 |
| O=C(c1ccc(Nc2nc(NC3CC3)c3c(C(F)(F)F)c[nH]c3n2)c2c1CCO2)N1CCC(N2CCOCC2)CC1 [Example 434, (7-((4-(cyclopropyl-amino)5-(trifluoromethyl)-7H-pyrrolo[2,3-d]pyrimidin-2-yl)amino)-2,3-dihydrobenzo-furan-4-yl)(4-morpho-linopiperidin-1-yl)methanone] | 34.1 | 301 to 1000 | < 100 | < 100 |
| CCNc1nc(Nc2ccc(C(=O)N3CCC(N4CCOCC4)CC3)c3c2OCC3)nc2[nH]cc(C(F)(F)F)c12 [Example 438, (7-((4-(ethylamino)-5-(trifluoromethyl)-7H-pyrrolo[2,3-d]pyrimidin-2-yl)amino)-2,3-dihydrobenzo-furan-4-yl)(4-morpho-linopiperidin-1-yl)methanone] | 25.8 | 301 to 1000 | < 100 | < 100 |
| COCCNc1nc(Nc2ccc(C(=O)N3CCC(N4CCOCC4)CC3)c3c2OCC3)nc2[nH]cc(C(F)(F)F)c12 [Example 443, (7-((4-((2-methoxyethyl)amino)-5-(trifluoromethyl)-7H-pyrrolo[2,3-d]pyrimidin-2-yl)amino)-2,3-dihydrobenzo-furan-4-yl)(4-morpho-linopiperidin-1-yl)methanone] | 4.6 | 301 to 1000 | < 100 | < 100 |
| COCCNc1nc(Nc2ccc(P3(=O)CCN(C4CCOCC4)CC3)cc2OC)nc2[nH]cc(C(F)(F)F)c12 [Example 444, 4-(3-methoxy-4-((4-((2-methoxyethyl)amino)-5-(trifluoromethyl)-7H-pyrrolo[2,3-d]pyrimidin-2-yl)amino)phenyl)-1-(tetrahydro-2H-pyran-4-yl)-1,4-azaphosphinane 4-oxide] | 20 | 301 to 1000 |  | < 100 |
| CCCNc1nc(Nc2ccc(C(=O)N3CCC(N4CCOCC4)CC3)c3c2OCC3)nc2[nH]cc(C(F)(F)F)c12 [Example 446, (4-morpholino-piperidin-1-yl)(7-((4-(propylamino)-5-(trifluoromethyl)-7H-pyrrolo[2,3-d]pyrimidin-2-yl)amino)-2,3-dihydrobenzo-furan-4-yl)methanone] | 17.3 | 301 to 1000 | < 100 | < 100 |
| CCNc1nc(Nc2ccc(C(=O)N3CCC(N4C[C@@H]5C[C@H]4CO5)CC3)c3c2OCC3)nc2[nH]cc(C(F)(F)F)c12 [Example 468] | 22.4 | 301 to 1000 | < 100 | < 100 |
| COc1cc(S(=O)(=O)N2CCC(N3C[C@H]4C[C@@H]3CO4)CC2)ccc1Nc1nc(C2CC2)c2c(C(F)(F)F)c[nH]c2n1 [Example 473, N-(4-((4-((1R,4R)-2-oxa-5-azabicyclo[2.2.1]heptan-5-yl)piperidin-1-yl)sulfonyl)-2-methoxyphenyl)-4-cyclopropyl-5-(trifluoromethyl)-7H-pyrrolo[2,3-d]pyrimidin-2-amine] | 31 | 301 to 1000 |  |  |
